System: TPH1 mRNA
Experiment: TPH1 mRNA levels in murine raphe slice preparation by real-time RT-PCR
Format: in vivo, mouse
Excerpt: Female mice (13 to 16 wks of age) were ovariectomized (C57BL/6s from Charles River; ER Knockout animals from Taconic). Animals were fed a soy-free rodent chow and allowed a minimum of one week to recuperate from surgery and shipping. […] Approximately six hours following the fourth dose, mice were deeply anesthetized with ketamine/xylazine and brains were removed from the skull, placed ventral side up in a mouse brain block on ice, and ice-cold razor blades were inserted into the block at 1 mm intervals. The caudal extent of the hypothalamus was used as an anatomical marker for the placement of the first razor blade, and 4 blades were placed in sequential slots, caudally. The four sections were examined and the two that encompassed the greatest extent of the dorsal raphe were placed in a tube containing RNALATER (Ambion, Austin, Tex.) and placed at 4° C. overnight. Brain slices were removed from RNALATER after 24 hours and stored at −80° C. in fresh tubes.
Isolation of total RNA from mouse raphe slices for real-time PCR analysis using the TAQMAN ABI PRISMS 7700 Detection System, Applied Biosystems, Foster City, Calif. was as follows. Samples were stored in RNALATER at 4° C. overnight followed by removal of RNALATER and storage at −80° C. until isolation of the total RNA (2 slices weigh 25 to 50 mg). Slices were removed from −80° C. and placed in 1.0 mL TRIZOL Reagent in FASTPREP processing tubes. Slices were homogenized with one pass at setting 6 for 30 seconds in FASTPREP 120 homogenizer using LYSING MATRIX D tubes with bead matrix followed by 20 seconds at setting 6 after all samples had been processed. Samples were set at room temperature for 5 minutes to allow for complete dissociation of nucleoprotein complexes followed by centrifugation of the samples at 12,000×g for 5 minutes at 4° C. Homogenates were transferred to 1.5 mL; microcentrifuge tubes and 100 μL BCP (Bromo-3-chloropropane) was added. Samples were vortexed for 15 seconds and set at room temperature for 2 to 3 minutes. Samples were centrifuged at 12,000×g for 15 minutes at 4° C. The aqueous layer was removed and placed in a new RNAse-free sterile 1.5 mL microcentrifuge tube. Five μL of 5 mg/μL glycogen was added to each sample and the samples were vortexed. Five hundred μL of isopropanol was added to each sample. The samples were vortexed for 15 seconds, set at room temperature 10 minutes, followed by centrifugation at 12,000×g for 15 minutes at 4° C. Supernatants were decanted and pellets washed with 500 μL ice cold 75% ethanol. Samples were centrifuged at 12,000×g for 15 minutes at 4° C., ethanol decanted, and pellets air dried for 10 minutes. Pellets were resuspended in 30 μL prewarmed RNASECURE (60° C.), and heated at 60° C. for 10 min. Samples were stored at −80° C. until DNAse treatment and cDNA synthesis.
DNase treatment and cDNA preparation with wt mouse raphe slice total RNA for TAQMAN analysis. DNase treatment using DNA-free kit (Ambion). Five μg of the total RNA sample was aliquotted to each well of a 96 well plate. An 1× DNase I solution was added to each sample (DNase I buffer, DNase I, H2O). Reactions were mixed and incubated at 37° C. for 30 minutes. Reactions were inactivated by addition of DNase inactivation reagent beads, mixed well at room temperature for 3 minutes and centrifuged at 2,500 RPM for 1 minutes at 4° C. (25 μL reactions were run and inactivated with 1/10 volume of inactivation reagent).
Reverse Transcription. A 10 μL of the DNase I-treated total RNA was added to 40 μL of 1× reverse transcription reaction mix (DEPC treated H2O, RT buffer, MgCl2, dNTP mix, random hexamers, RNase inhibitor, and MULTISCRIBE RT) and incubated at 25° C. for 10 minutes, 48° C. for 30 minutes, and 95° C. for 5 minutes. Reverse transcription was halted by the addition of EDTA. Samples were transferred to a storage plate and stored at −20° C. […]

## CC#C[C@]1(O)CC[C@H]2[C@@H]3CCC4=CC(=O)CCC4=C3[C@@H](c3ccc(N(C)C)cc3)C[C@@]21C [mifepristone]
Murine raphe slice preparations, dose not stated, FIG. 6
  change of TPH1 mRNA levels in response to treatment: no detectable change

## C[C@@H]1C[C@H]2[C@@H]3CCC4=CC(=O)C=C[C@]4(C)[C@@]3(F)[C@@H](O)C[C@]2(C)[C@@]1(O)C(=O)CO [dexamethasone]
3 mpk s.c., ovariectomized mice, FIG. 6
  effect on TPH1 mRNA levels: no effect

## C[C@]12CC[C@@H]3c4ccc(O)cc4CC[C@H]3[C@@H]1CC[C@@H]2O [17β-estradiol]
0.2 mpk s.c. once daily for four days, ovariectomized mice, FIG. 6
  TPH1 mRNA induction in raphe slice: 1.8 fold
Male and female mice, data not shown
  effect on TPH1 mRNA in the DRN: induces
